The text below walks through data of ChEMBL document CHEMBL1201862, “PubChem BioAssay data set” (2004).

The structures appear in SMILES notation.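 Test compounds were applied to cells in 96-well plates for 48 hours at 5 doses. GI50 is the concentration that inhibits growth by half.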 Activity calls are given as the source filed them. Rule as the data show it: active = GI50 up to about 1.1 µM and inactive = higher.

Test systems include DMS-273; SK-MEL-2; HCC 2998; SNB-75; MOLT-4; LXFL 529; TK-10; NCI-H226; HL-60; M14; Malme-3M; CCRF-CEM; M19-MEL; HOP-18; DU-145; MDA-MB-231; MCF7; Hs-578T; T47D; MDA-MB-435.
What all share (assay): inhibition of tumour cell growth, NCI panel, 48 h

Take `O=C(CO)CC(=O)C(=O)Nc1cccc(C(F)(F)F)c1`: the GI50 with DMS-273, in the test on SK-MEL-2, with HCC 2998, with SNB-75, with MOLT-4 and in the test with LXFL 529 was > 100 µM (inactive) each time. For the same compound, the GI50 in the test on TK-10, in the test with NCI-H226, in the test with HL-60, in the test on M14 and in the test on Malme-3M was > 100 µM (inactive) throughout.

On to `CC1=C(O)C(=O)C2C(=O)C1C(C)C2c1ccc(Cl)cc1` (centres undefined), for which the GI50 with DMS-273 was > 100 µM (inactive); in the test on SK-MEL-2, > 100 µM (inactive); with HCC 2998, > 100 µM (inactive); in the test with CCRF-CEM, > 100 µM (inactive); in the test with SNB-75, 72.3 µM (inactive); with MOLT-4 it was > 100 µM (inactive). Besides, the GI50 in the test on LXFL 529, with TK-10, with NCI-H226, with HL-60, in the test with M14 and in the test with M19-MEL was > 100 µM (inactive) each time. The GI50 in the test on Malme-3M is > 100 µM (inactive).

In the case of `COc1ccc(CN(CCN(C)C)c2ccccn2)cc1.Cn1c(=O)c2[nH]c(Br)nc2n(C)c1=O`, the GI50 with HOP-18 is > 100 µM (inactive); in the test with SK-MEL-2, > 100 µM (inactive); in the test with CCRF-CEM, > 100 µM (inactive); with SNB-75, 23.3 µM (inactive); in the test with MOLT-4, > 100 µM (inactive); with LXFL 529 it was > 100 µM (inactive). Moreover, the GI50 in the test on TK-10, in the test on M14 and with Malme-3M was > 100 µM (inactive) each time.

`O=C1CCC2(c3ccc(F)cc3)Nc3ncccc3N12` (centres undefined): the GI50 with SK-MEL-2 is > 100 µM (inactive); in the test on HCC 2998 it was > 100 µM (inactive); in the test with CCRF-CEM, > 100 µM (inactive); in the test with SNB-75 it was 70.1 µM (inactive); in the test with MOLT-4 it was > 100 µM (inactive); with LXFL 529, > 100 µM (inactive). For the same compound, the GI50 in the test with TK-10, in the test with NCI-H226, in the test on HL-60, in the test with M14, in the test with M19-MEL and with Malme-3M was > 100 µM (inactive) throughout.

Take `O=C1OC(c2ccccc2)=N/C1=C/NC(Cc1c[nH]cn1)C(=O)O` (centres undefined): the GI50 in the test with DMS-273, in the test on SK-MEL-2, in the test on HCC 2998, in the test on CCRF-CEM, in the test on SNB-75 and in the test with MOLT-4 was > 100 µM (inactive) throughout. The GI50 in the test with LXFL 529, in the test with TK-10, in the test on NCI-H226, with HL-60, in the test on M14 and with M19-MEL was > 100 µM (inactive) throughout. Besides, the GI50 in the test on Malme-3M was > 100 µM (inactive).

For `CCCCCCC(=O)C/C(=N/NC(N)=S)C(=O)NC1C2CC3CC(C2)CC1C3` (centres undefined), the GI50 with SK-MEL-2, in the test with HCC 2998, in the test with CCRF-CEM, in the test with SNB-75, in the test on MOLT-4 and with LXFL 529 was > 100 µM (inactive) each time. The GI50 in the test on TK-10, in the test on NCI-H226, in the test on HL-60, with M14, with M19-MEL and with Malme-3M was > 100 µM (inactive) in each case.

For `CC12N=NNC1C(=O)NC2=O` (centres undefined), the GI50 in the test with DMS-273, with SK-MEL-2, in the test with HCC 2998, in the test with CCRF-CEM, with SNB-75 and with MOLT-4 was > 100 µM (inactive) each time. Further, the GI50 in the test with LXFL 529, in the test with TK-10, with NCI-H226, in the test on HL-60 and with M19-MEL was > 100 µM (inactive) in each case.

`O=c1c2ccccc2[nH]c2c(O)ccc(O)c12`: the GI50 with DMS-273 was 16.6 µM (inactive); in the test with SK-MEL-2, 29.4 µM (inactive); with HCC 2998 it was > 100 µM (inactive); in the test with CCRF-CEM, 5.58 µM (inactive); in the test on SNB-75, > 10 µM (inactive); in the test with MOLT-4, 7.91 µM (inactive). Also, the GI50 with LXFL 529 is 15.1 µM (inactive); in the test on TK-10 it was 26.3 µM (inactive); in the test with NCI-H226 it was 25.6 µM (inactive); in the test with HL-60, 2.64 µM (inactive); with M14 it was 15.9 µM (inactive); with M19-MEL, 24.9 µM (inactive). For the same compound, the GI50 in the test with Malme-3M is 24 µM (inactive).

As for `CC(=O)N1C(Nc2cccc3nc(C)ccc23)CCN1c1ccccc1` (centres undefined), the GI50 in the test on DU-145, in the test on SK-MEL-2, in the test with MDA-MB-231, with HCC 2998, in the test on MCF7 and with CCRF-CEM was > 10 µM (inactive) in each case. In addition, the GI50 in the test with Hs-578T, in the test on SNB-75, with MOLT-4, in the test with TK-10, in the test on NCI-H226 and with T47D was > 10 µM (inactive) throughout. Also, the GI50 with HL-60 is 8.2 µM (inactive); in the test on M14 it was > 10 µM (inactive); in the test with MDA-MB-435 it was > 10 µM (inactive); in the test on Malme-3M, > 10 µM (inactive).

As to `CCN(CC)c1ncnc2c1ncn2CCNC(CO)(CO)CO`, the GI50 in the test on DU-145, with SK-MEL-2, in the test on MDA-MB-231, with HCC 2998, in the test with MCF7 and with CCRF-CEM was > 100 µM (inactive) throughout. Further, the GI50 in the test on Hs-578T, in the test on SNB-75, in the test with MOLT-4, in the test with TK-10, in the test on NCI-H226 and in the test on T47D was > 100 µM (inactive) each time. The GI50 in the test on HL-60, in the test on M14, in the test with MDA-MB-435 and in the test on Malme-3M was > 100 µM (inactive) throughout.

For `O=C(CCc1cc(-c2ccco2)n(-c2ccc([N+](=O)[O-])cc2[N+](=O)[O-])n1)Nc1ccccc1`, the GI50 with DMS-273 was > 100 µM (inactive); in the test with SK-MEL-2, > 100 µM (inactive); with HCC 2998 it was > 100 µM (inactive); in the test with CCRF-CEM it was 61 µM (inactive); in the test with SNB-75, > 100 µM (inactive); in the test on MOLT-4 it was 65.8 µM (inactive). Further, the GI50 with LXFL 529 was > 100 µM (inactive); in the test with NCI-H226, > 100 µM (inactive); in the test with HL-60 it was 49.3 µM (inactive); with M14, > 100 µM (inactive); with M19-MEL, > 100 µM (inactive); in the test with Malme-3M, 32.8 µM (inactive).

`CNc1ccc(Cl)cc1C(=O)N1CCC[C@H]1CO`: the GI50 in the test on DU-145, in the test with SK-MEL-2, in the test on MDA-MB-231, in the test on HCC 2998, in the test on MCF7 and in the test with CCRF-CEM was > 100 µM (inactive) in each case. Besides, the GI50 in the test on Hs-578T was > 100 µM (inactive); in the test with SNB-75, 99.3 µM (inactive); with MOLT-4, > 100 µM (inactive); in the test on TK-10, > 100 µM (inactive); with NCI-H226 it was > 96.4 µM (inactive); in the test with T47D, > 100 µM (inactive). In addition, the GI50 in the test with HL-60, with M14, in the test on MDA-MB-435 and in the test with Malme-3M was > 100 µM (inactive) in each case.

Take `O=C(CC1Sc2ccccc2NC1=O)Nc1cccc(Cl)c1` (centres undefined): the GI50 in the test with DMS-273 is 28.2 µM (inactive); with SK-MEL-2, 39 µM (inactive); in the test on HCC 2998, 89.3 µM (inactive); in the test on CCRF-CEM it was 40.4 µM (inactive); with SNB-75, 32.4 µM (inactive); in the test on MOLT-4, 15.9 µM (inactive). Further, the GI50 was 42.1 µM (inactive) in the test on LXFL 529; 41.9 µM (inactive) with TK-10; 26.8 µM (inactive) in the test on NCI-H226; 35.6 µM (inactive) with HL-60; 38.3 µM (inactive) in the test with M14; 81.5 µM (inactive) in the test with M19-MEL. Also, the GI50 in the test with Malme-3M was 55.2 µM (inactive).

`O=C(Nc1sccc1S(=O)(=O)c1ccccc1)c1cccnc1`: the GI50 was 39.2 µM (inactive) with DU-145; 6.71 µM (inactive) in the test on SK-MEL-2; > 69.5 µM (inactive) in the test on MDA-MB-231; 21.3 µM (inactive) in the test with HCC 2998; 8.07 µM (inactive) in the test with MCF7; 7.03 µM (inactive) with CCRF-CEM. Also, the GI50 with Hs-578T is > 46.7 µM (inactive); with SNB-75, 19.1 µM (inactive); in the test on MOLT-4 it was 5.35 µM (inactive); in the test on TK-10, > 83 µM (inactive); with NCI-H226 it was 13.7 µM (inactive); in the test with T47D, 70.6 µM (inactive). Besides, the GI50 in the test with HL-60 was 0.614 µM (active); in the test with M14, 6.08 µM (inactive); with MDA-MB-435 it was 1.83 µM (inactive); in the test with Malme-3M, 8.59 µM (inactive).

For the compound `CCOC(=O)C(SCCO)C(C(=O)OCC)n1ccc(N)nc1=O` (centres undefined), the GI50 in the test on DU-145, with SK-MEL-2, in the test on MDA-MB-231, in the test on HCC 2998, in the test on MCF7 and in the test on CCRF-CEM was > 100 µM (inactive) throughout. Further, the GI50 with Hs-578T, in the test on SNB-75, with MOLT-4, with TK-10, with NCI-H226 and in the test on T47D was > 100 µM (inactive) throughout. The GI50 with HL-60, in the test on M14, in the test on MDA-MB-435 and in the test on Malme-3M was > 100 µM (inactive) throughout.
